One block for each compound: values may come before it.
Assays:
[1] = tested on: Tyrosine-protein kinase receptor UFO (Homo sapiens), P30530 [R499C]; assay: Selectivity interaction (LanthaScreen Eu Kinase Binding Assay) EUB0001632a AXL; settings: at 10 µM
[2] = molecular target: Cyclin-dependent kinase 1/cyclin B (Homo sapiens) (UniProt P06493+P14635+Q8WWL7+O95067); assay: Selectivity interaction (Kinase panel (Z-LYTE Assay)) EUB0001632a CDK1; type: protein-complex assay; settings: at 10 µM
[3] = molecular target: Serine/threonine-protein kinase PAK 2 (Homo sapiens) (UniProt Q13177); assay: Selectivity interaction (Kinase panel (Z-LYTE Assay)) EUB0001632a PAK2; settings: at 10 µM
[4] = molecular target: Glucocorticoid receptor (Homo sapiens) (UniProt P04150); assay: Selectivity interaction (Eurofins CEREP Diversity Profile (receptors and ion channels)) EUB0000279b NR3C1; settings: at 10 µM
[5] = molecular target: Calcium/calmodulin-dependent protein kinase type II subunit alpha (Homo sapiens, UniProt Q9UQM7); assay: Selectivity interaction (SelectScreen profiling (Invitrogen)) EUB0000607a CAMK2A; settings: at 2 µM
[6] = molecular target: Homeodomain-interacting protein kinase 2 (Homo sapiens, UniProt Q9H2X6); assay: Selectivity interaction (Kinase panel (Invitrogen)) EUB0000639a HIPK2; settings: at 200 nM
[7] = molecular target: Dual specificity mitogen-activated protein kinase kinase 1 (Homo sapiens, UniProt Q02750); assay: Selectivity interaction (ActivX KiNativ screen (kinase selectivity in THP-1 cell lysates)) EUB0000639a MAP2K1; type: subcellular; settings: lysate, at 0.04 µM
[8] = molecular target: TRAF2 and NCK-interacting protein kinase (Homo sapiens) (UniProt Q9UKE5); assay: Selectivity interaction (ActivX KiNativ screen (kinase selectivity in THP-1 cell lysates)) EUB0000639a TNIK; type: subcellular; settings: lysate
[9] = tested on: Hepatocyte growth factor receptor (Homo sapiens), P08581 [D1228H]; assay: (§1) Selectivity interaction (ProQinase) EUB0000171b MET
[10] = tested on: Hepatocyte growth factor receptor (Homo sapiens), P08581 [D1228N]; assay: as §1
[11] = tested on: Hepatocyte growth factor receptor (Homo sapiens), P08581 [F1200I]; assay: as §1
[12] = tested on: Hepatocyte growth factor receptor (Homo sapiens), P08581 [M1250T]; assay: as §1
[13] = tested on: Hepatocyte growth factor receptor (Homo sapiens), P08581 [Y1230A]; assay: as §1
[14] = tested on: Hepatocyte growth factor receptor (Homo sapiens), P08581 [Y1230C]; assay: as §1
[15] = tested on: Hepatocyte growth factor receptor (Homo sapiens), P08581 [Y1230D]; assay: as §1
[16] = tested on: Hepatocyte growth factor receptor (Homo sapiens), P08581 [Y1230H]; assay: as §1
[17] = tested on: Hepatocyte growth factor receptor (Homo sapiens), P08581 [Y1235D]; assay: as §1
[18] = molecular target: Hepatocyte growth factor receptor (Homo sapiens, UniProt P08581); assay: as §1
[19] = molecular target: Serine/threonine-protein kinase WNK2 (Homo sapiens) (UniProt Q9Y3S1); assay: Selectivity interaction (KinomeScan (DiscoverX)) EUB0000695a WNK2; settings: at 100 nM
[20] = molecular target: Mitogen-activated protein kinase 9 (Homo sapiens, UniProt P45984); assay: Selectivity interaction (KinomeScan (DiscoverX)) EUB0001049a MAPK9; settings: at 1 µM
[21] = tested on: ALK tyrosine kinase receptor (Homo sapiens), Q9UM73 [C1156Y]; assay: (§2) Selectivity interaction (Ambit KINOMEscan and KiNATiv profiling in Jurkat cells) EUB0000090b ALK; type: cell-based; settings: at 1 µM
[22] = tested on: ALK tyrosine kinase receptor (Homo sapiens), Q9UM73 [L1196M]; assay: as §2; type: cell-based; settings: at 1 µM
[23] = molecular target: ALK tyrosine kinase receptor (Homo sapiens, UniProt Q9UM73); assay: as §2; type: cell-based; settings: at 1 µM
[24] = molecular target: Hepatocyte growth factor-like protein (Homo sapiens) (UniProt P26927); assay: Selectivity interaction (Ambit KINOMEscan and KiNATiv profiling in Jurkat cells) EUB0000090b MST1; type: cell-based; settings: at 1 µM
[25] = molecular target: Cyclin-dependent kinase 9 (Homo sapiens, UniProt P50750); assay: Selectivity interaction (Z-Lyte kinase biochemical assay, conc. ATP = Km(app), Thermo Fisher Scientific) EUB0001558a CDK9
[26] = molecular target: Phosphatidylinositol 4-kinase beta (Homo sapiens, UniProt Q9UBF8); assay: Selectivity interaction (KinomeScan (DiscoverX)) EUB0000045b PI4KB
[27] = molecular target: Calcium/calmodulin-dependent protein kinase type II subunit delta (Homo sapiens) (UniProt Q13557); assay: Selectivity interaction (KinomeScan (DiscoverX)) EUB0001079a CAMK2D; settings: at 1 µM
D(3) dopamine receptor = D(3) dopamine receptor (Homo sapiens, UniProt P35462); assay: Selectivity interaction (GPCR panel (PDSP screen)) EUB0001079a DRD3; settings: at 10 µM
[28] = molecular target: Serine/threonine-protein kinase PAK 2 (Homo sapiens) (UniProt Q13177); assay: Selectivity interaction (Kinase panel (KiNativ target engagement assay in Jurkat cells)) EUB0001635a PAK2; type: cell-based; settings: Selectivity number of off-targets 0.0, Selectivity number of targets 233.0, Source Knowledge https://www.sciencedirect.com/science/article/pii/S2451945619300674?via%3Dihub, at 1 µM
[29] = molecular target: T1, Serine/threonine-protein kinase Nek11 (Homo sapiens) (UniProt Q8NG66); settings: at 10 µM
T1 sequence (whole entry): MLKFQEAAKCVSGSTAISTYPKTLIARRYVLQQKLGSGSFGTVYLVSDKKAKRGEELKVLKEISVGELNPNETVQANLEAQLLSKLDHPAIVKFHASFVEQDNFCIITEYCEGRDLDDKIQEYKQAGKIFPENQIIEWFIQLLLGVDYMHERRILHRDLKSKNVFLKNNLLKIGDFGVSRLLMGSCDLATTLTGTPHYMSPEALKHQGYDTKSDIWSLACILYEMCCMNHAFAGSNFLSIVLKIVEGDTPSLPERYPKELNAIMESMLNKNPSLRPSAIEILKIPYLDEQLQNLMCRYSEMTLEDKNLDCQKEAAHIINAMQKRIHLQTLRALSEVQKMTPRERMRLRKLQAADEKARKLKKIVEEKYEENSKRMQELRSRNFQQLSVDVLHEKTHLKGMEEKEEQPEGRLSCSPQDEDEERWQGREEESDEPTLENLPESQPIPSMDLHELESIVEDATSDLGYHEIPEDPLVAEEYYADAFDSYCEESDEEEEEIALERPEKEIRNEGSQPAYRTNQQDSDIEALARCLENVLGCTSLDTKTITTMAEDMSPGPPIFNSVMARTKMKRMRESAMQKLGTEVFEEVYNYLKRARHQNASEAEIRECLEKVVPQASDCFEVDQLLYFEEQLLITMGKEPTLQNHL

TRAF2 and NCK-interacting protein kinase (Homo sapiens), sequence (Q9UKE5 whole entry, looked up): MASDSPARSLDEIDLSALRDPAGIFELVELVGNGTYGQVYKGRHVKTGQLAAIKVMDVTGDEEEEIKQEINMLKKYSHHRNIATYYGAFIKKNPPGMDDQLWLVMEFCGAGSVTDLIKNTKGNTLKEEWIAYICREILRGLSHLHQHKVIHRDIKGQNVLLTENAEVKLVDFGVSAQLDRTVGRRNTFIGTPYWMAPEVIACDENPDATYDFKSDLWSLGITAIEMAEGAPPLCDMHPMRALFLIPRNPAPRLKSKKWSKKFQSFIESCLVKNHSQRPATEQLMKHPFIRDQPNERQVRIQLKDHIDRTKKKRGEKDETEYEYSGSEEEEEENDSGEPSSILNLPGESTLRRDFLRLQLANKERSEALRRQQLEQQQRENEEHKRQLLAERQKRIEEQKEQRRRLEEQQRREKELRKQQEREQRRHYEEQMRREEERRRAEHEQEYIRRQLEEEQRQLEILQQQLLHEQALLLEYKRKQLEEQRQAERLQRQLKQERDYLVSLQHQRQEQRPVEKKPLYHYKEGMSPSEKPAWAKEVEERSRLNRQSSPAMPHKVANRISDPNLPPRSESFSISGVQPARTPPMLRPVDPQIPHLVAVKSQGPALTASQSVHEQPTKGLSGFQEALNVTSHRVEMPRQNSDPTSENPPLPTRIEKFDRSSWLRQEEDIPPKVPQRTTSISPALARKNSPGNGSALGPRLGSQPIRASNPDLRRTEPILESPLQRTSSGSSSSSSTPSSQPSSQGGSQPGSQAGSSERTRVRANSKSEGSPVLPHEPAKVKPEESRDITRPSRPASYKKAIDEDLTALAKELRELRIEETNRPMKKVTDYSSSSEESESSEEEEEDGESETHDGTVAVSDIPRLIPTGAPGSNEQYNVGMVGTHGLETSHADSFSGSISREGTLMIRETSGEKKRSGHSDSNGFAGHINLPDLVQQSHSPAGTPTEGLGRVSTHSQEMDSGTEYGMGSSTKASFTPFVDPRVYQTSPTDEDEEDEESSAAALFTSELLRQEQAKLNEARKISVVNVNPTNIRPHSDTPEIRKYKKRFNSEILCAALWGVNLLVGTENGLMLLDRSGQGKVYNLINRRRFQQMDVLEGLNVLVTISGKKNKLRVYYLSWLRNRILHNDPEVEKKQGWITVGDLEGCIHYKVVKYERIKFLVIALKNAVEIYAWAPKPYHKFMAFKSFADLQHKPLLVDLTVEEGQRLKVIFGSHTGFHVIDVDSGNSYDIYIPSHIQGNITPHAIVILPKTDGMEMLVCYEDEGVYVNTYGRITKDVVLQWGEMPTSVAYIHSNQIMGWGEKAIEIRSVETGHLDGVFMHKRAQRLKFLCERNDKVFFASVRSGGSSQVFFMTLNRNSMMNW
Hepatocyte growth factor receptor (Homo sapiens), P08581 [D1228N], sequence (P08581 whole entry D1228N): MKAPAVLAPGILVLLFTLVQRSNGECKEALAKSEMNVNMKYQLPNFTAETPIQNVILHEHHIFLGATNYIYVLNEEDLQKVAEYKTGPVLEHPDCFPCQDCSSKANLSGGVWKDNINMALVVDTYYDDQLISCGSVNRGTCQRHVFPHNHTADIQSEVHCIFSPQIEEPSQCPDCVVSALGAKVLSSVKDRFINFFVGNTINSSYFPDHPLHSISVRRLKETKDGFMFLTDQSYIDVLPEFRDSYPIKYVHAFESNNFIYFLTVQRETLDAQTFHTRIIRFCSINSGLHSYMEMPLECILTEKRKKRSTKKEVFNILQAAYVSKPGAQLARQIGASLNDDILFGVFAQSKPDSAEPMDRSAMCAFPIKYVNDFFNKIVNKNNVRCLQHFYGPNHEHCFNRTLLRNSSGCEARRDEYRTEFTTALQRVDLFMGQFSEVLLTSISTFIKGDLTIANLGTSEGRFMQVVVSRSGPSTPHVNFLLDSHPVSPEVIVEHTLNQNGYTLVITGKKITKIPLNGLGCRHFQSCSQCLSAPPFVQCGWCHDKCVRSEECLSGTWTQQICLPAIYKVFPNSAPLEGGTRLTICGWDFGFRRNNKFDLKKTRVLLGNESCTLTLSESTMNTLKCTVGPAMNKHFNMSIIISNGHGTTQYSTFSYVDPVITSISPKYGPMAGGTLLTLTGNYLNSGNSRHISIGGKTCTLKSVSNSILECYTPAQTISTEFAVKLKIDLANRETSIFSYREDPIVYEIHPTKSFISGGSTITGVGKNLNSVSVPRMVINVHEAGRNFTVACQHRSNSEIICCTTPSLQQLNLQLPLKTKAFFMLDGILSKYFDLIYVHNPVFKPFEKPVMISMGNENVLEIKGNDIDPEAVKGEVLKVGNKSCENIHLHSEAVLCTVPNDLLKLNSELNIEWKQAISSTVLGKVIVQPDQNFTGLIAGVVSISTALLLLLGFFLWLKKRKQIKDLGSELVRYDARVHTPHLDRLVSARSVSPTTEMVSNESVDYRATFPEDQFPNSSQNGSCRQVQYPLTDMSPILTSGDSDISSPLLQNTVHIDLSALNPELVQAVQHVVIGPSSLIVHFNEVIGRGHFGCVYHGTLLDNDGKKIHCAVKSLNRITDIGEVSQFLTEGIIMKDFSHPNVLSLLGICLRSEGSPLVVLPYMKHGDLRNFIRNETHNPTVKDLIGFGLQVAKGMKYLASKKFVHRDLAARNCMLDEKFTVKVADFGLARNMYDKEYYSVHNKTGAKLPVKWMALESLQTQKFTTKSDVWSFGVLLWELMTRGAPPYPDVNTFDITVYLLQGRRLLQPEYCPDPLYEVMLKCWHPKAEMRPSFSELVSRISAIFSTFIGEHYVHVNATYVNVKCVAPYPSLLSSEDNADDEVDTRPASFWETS
Hepatocyte growth factor receptor (Homo sapiens), P08581 [Y1230A], sequence (P08581 whole entry Y1230A): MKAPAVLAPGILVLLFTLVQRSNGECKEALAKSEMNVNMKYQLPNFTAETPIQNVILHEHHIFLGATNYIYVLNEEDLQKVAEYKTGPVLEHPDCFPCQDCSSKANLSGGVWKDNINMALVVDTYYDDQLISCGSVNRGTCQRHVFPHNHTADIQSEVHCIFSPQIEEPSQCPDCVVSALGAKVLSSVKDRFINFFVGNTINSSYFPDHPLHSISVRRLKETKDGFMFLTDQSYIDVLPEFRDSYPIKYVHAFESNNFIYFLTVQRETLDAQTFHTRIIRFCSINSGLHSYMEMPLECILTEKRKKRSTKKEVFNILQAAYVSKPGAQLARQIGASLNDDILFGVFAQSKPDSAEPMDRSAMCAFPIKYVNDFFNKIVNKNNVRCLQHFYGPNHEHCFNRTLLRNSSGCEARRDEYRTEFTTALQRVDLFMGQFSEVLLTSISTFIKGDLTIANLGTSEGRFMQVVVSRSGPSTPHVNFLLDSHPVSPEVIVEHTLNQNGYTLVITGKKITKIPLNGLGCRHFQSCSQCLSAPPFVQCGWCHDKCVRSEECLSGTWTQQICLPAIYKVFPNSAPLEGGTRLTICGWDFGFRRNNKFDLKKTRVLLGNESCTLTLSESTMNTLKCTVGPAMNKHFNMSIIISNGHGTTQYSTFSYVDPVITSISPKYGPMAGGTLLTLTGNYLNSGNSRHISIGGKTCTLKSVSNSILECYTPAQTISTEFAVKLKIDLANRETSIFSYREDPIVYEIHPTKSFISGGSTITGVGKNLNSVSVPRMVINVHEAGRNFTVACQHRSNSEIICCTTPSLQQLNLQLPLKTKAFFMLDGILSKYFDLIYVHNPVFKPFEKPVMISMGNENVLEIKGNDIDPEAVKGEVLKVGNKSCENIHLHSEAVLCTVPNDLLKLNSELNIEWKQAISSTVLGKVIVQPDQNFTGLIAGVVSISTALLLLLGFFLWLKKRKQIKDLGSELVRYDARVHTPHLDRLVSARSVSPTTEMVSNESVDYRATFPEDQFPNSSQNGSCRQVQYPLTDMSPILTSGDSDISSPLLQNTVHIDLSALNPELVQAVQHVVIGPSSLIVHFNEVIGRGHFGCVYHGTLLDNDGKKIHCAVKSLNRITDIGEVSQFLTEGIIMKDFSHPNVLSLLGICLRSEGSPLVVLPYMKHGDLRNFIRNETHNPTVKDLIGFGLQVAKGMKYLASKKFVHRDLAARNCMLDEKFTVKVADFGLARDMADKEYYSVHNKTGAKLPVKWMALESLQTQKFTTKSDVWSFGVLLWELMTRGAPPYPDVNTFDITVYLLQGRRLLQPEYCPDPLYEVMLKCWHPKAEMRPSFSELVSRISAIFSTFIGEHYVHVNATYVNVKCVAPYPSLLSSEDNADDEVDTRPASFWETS
Phosphatidylinositol 4-kinase beta, sequence (Q9UBF8 2-816 limits assumed): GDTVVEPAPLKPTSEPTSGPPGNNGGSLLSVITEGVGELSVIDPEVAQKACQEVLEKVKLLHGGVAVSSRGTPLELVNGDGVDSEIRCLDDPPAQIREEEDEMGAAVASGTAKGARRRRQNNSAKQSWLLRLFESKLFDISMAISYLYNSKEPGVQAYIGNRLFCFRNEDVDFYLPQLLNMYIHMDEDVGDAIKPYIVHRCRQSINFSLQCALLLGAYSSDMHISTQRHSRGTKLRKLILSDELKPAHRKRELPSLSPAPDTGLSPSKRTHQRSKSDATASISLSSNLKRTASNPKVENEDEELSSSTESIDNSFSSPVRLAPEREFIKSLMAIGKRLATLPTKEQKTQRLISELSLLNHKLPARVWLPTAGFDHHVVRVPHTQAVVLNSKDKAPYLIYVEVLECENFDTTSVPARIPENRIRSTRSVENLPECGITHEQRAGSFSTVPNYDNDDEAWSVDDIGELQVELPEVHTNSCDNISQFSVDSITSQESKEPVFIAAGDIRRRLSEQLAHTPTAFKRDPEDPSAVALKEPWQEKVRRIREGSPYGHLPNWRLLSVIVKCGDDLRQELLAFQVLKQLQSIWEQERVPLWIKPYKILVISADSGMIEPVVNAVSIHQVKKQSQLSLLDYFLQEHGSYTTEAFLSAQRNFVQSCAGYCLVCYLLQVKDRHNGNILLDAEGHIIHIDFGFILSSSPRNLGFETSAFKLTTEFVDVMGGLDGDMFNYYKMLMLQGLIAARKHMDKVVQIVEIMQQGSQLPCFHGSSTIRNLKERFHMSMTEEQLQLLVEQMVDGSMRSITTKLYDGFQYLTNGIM

- % of inhibition [1]: -15.8%
- % of control [2]: 3.94%
- % of control [3]: -1.61%
SMILES: Cn1cc(-n2cnc3c(NCc4nc5cc(Cl)c(Cl)cc5[nH]4)nc(N4CCOCC4)nc32)cn1

- % of control [4]: 94%
SMILES: CC(=O)c1cc(-c2ccccc2OCC2CC2)c2ncccn12

SMILES: CNC(=O)Nc1ccc(-c2nc(N3CC4CCC(C3)O4)c3cnn(C4CCC5(CC4)OCCO5)c3n2)cc1
- % of inhibition [5]: 0%

- % of inhibition [6]: 4.6%
- % of inhibition [7]: 5.6%
- % of inhibition ([8]; at 0.01 µM): -2.8%
- % of inhibition ([8]; at 0.04 µM): -2.7%
- % of inhibition ([8]; at 0.2 µM): -20.6%
- % of inhibition ([8]; at 1 µM): -28.3%
- % of inhibition ([8]; at 5 µM): 16.1%
SMILES: CC[C@@H]1[C@H](F)C(=O)N[C@@H]1COc1nccc2cc(C(N)=O)c(OC)cc12 [ZIMLOVISERTIB]

- % of control ([9]; at 1 µM): 76%
- % of control ([9]; at 5 µM): 65%
- % of control ([10]; at 1 µM): 89%
- % of control ([10]; at 5 µM): 74%
- % of control ([11]; at 1 µM): 81%
- % of control ([11]; at 5 µM): 59%
- % of control ([12]; at 1 µM): 88%
- % of control ([12]; at 5 µM): 65%
- % of control ([13]; at 1 µM): 97%
- % of control ([13]; at 5 µM): 85%
- % of control ([14]; at 1 µM): 90%
- % of control ([14]; at 5 µM): 76%
- % of control ([15]; at 1 µM): 88%
- % of control ([15]; at 5 µM): 73%
- % of control ([16]; at 1 µM): 92%
- % of control ([16]; at 5 µM): 72%
- % of control ([17]; at 1 µM): 105%
- % of control ([17]; at 5 µM): 86%
- % of control ([18]; at 1 µM): 93%
- % of control ([18]; at 5 µM): 78%
SMILES: C=CC(=O)Nc1cccc(C(=O)Nc2ccc(Nc3cc(-c4[nH]c(SC)nc4C)ccn3)cc2)c1

SMILES: Cc1cc(F)c(C(=O)Nc2cccc(-c3nncn3C(C)C)n2)cc1-n1cnc(C2CC2)c1
- % of control [19]: 78%

SMILES: COc1cc(Nc2nc(C)cc(-c3cnn4nc(OC)ccc34)n2)cc(C(F)(F)F)c1
- % of control [20]: 82%

SMILES: CN(C)C/C=C/C(=O)Nc1ccc(C(=O)N2CCCC(Nc3ncc(Cl)c(-c4c[nH]c5ccccc45)n3)C2)cc1 (stereo not given)
- % of control [21]: 100%
- % of control [22]: 99%
- % of control [23]: 86%
- % of control [24]: 78%

SMILES: CC(C)(O)[C@H](F)CN1Cc2cc(NC(=O)c3cnn4cccnc34)c(N3CCOCC3)cc2C1=O
- IC50 [25]: 966 nM

SMILES: C=CC(=O)Nc1cc(-n2c(=O)ccc3cnc4ccc(-c5ccc(NS(C)(=O)=O)cc5)cc4c32)ccc1C
- % of control ([26]; at 1 µM): 79%
- % of control ([26]; at 10 µM): 20%

SMILES: Nc1cnc(N2CCc3cc(S(=O)(=O)Nc4c(F)cc(Cl)cc4F)cc(N4CCCC4=O)c32)nc1 [TP-020n]
- % of control [27]: 100%
- % of inhibition (D(3) dopamine receptor): 7.41%

SMILES: C=CC(=O)Nc1ccc(C(=O)Nc2[nH]nc3c2CN(C(=O)N[C@H](CN(C)C)c2ccccc2)C3(C)C)cc1
- % of engagement [28]: 10.9%

SMILES: Cc1cc([C@@H](C)Nc2ccccc2C(=O)O)c2nc(N3CCOCC3)cc(=O)n2c1 [AZD-6482]
- % of control [29]: 100%

Source: ChEMBL document CHEMBL5465560, “Selectivity Literature for EUbOPEN Chemogenomic Library” (2024)
